Source: ChEMBL document CHEMBL1201862, “PubChem BioAssay data set” (2004)
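The compound was tested at five concentrations on cells cultured in 96-well plates, with a 48-hour exposure period. GI50 = concentration required for 50% inhibition of growth.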 Calls of active or inactive are those of the source. Cut-off read from the data, not from the text of the source: active = GI50 up to about 1.1 µM and inactive = higher.

Tests used:
Test in all cases: NCI-60 cell line screen, 48 h
MCF7 = system: MCF7
HCT-116 = system: HCT-116
UACC-62 = system: UACC-62
OVCAR-8 = system: OVCAR-8
CCRF-CEM = system: CCRF-CEM
U-251 = system: U-251
SK-MEL-28 = system: SK-MEL-28
MOLT-4 = system: MOLT-4
T47D = system: T47D
SW-620 = system: SW-620
HOP-92 = system: HOP-92
HT-29 = system: HT-29
SN12C = system: SN12C
UO-31 = system: UO-31
OVCAR-5 = system: OVCAR-5
NCI-H522 = system: NCI-H522
A498 = system: A498
NCI-H460 = system: NCI-H460
MDA-N = system: MDA-N

Measured: GI50

O=c1nc(Oc2c(F)c(F)c(F)c(F)c2F)ccn1C1OC(CO)C(O)C1O (stereo unspecified)
inactive: MCF7 > 100 µM | HCT-116 > 100 µM | UACC-62 > 100 µM | OVCAR-8 > 100 µM | CCRF-CEM > 100 µM | U-251 > 100 µM | SK-MEL-28 > 100 µM | MOLT-4 43.9 µM | T47D > 100 µM | SW-620 > 100 µM | HOP-92 > 100 µM | HT-29 > 100 µM | SN12C > 100 µM | UO-31 > 100 µM | OVCAR-5 > 100 µM | NCI-H522 54.5 µM | A498 > 100 µM

Cc1[nH]nc(C(=O)N/N=C/c2cccs2)c1/N=N\N(C)C
inactive: MCF7 3.94 µM | HCT-116 11 µM | UACC-62 14 µM | OVCAR-8 11.6 µM | CCRF-CEM 2.52 µM | U-251 10.3 µM | MOLT-4 3.75 µM | T47D 9.12 µM | SW-620 15.3 µM | HOP-92 16.3 µM | HT-29 3.31 µM | SN12C 22 µM | UO-31 2.49 µM | OVCAR-5 29.7 µM | NCI-H522 11.2 µM | A498 23.4 µM | NCI-H460 3.43 µM

O=C1c2cc([N+](=O)[O-])cnc2S(=O)(=O)N1c1ccc(Oc2ccccc2)cc1
inactive: MCF7 > 100 µM | HCT-116 > 100 µM | UACC-62 > 100 µM | OVCAR-8 > 100 µM | CCRF-CEM 39 µM | U-251 > 100 µM | SK-MEL-28 > 100 µM | MOLT-4 33 µM | T47D > 100 µM | SW-620 > 100 µM | HOP-92 > 100 µM | SN12C > 100 µM | UO-31 > 100 µM | OVCAR-5 > 100 µM | NCI-H522 > 100 µM | NCI-H460 > 100 µM

Clc1ccc(OCc2nnc(CCCCCCCCc3nnc(COc4ccc(Cl)cc4)o3)o2)cc1
inactive: MCF7 28.2 µM | HCT-116 10.5 µM | UACC-62 > 100 µM | U-251 29.4 µM | SK-MEL-28 > 100 µM | MOLT-4 14.8 µM | SW-620 > 100 µM | HOP-92 31.7 µM | HT-29 > 100 µM | SN12C 43.8 µM | UO-31 > 100 µM | OVCAR-5 > 100 µM | NCI-H522 31.8 µM | A498 > 100 µM | NCI-H460 > 100 µM | MDA-N > 100 µM

COc1ccc2oc(=N)c(C(N)=O)cc2c1
inactive: HCT-116 50.9 µM | UACC-62 29.8 µM | OVCAR-8 > 100 µM | CCRF-CEM 33.2 µM | U-251 > 100 µM | SK-MEL-28 79.4 µM | MOLT-4 65.9 µM | T47D 32 µM | SW-620 94.8 µM | HOP-92 > 100 µM | HT-29 56.4 µM | SN12C 74.5 µM | OVCAR-5 > 100 µM | A498 44.2 µM | NCI-H460 39.2 µM | MDA-N 57.1 µM

O=c1n(-c2ccccc2)c(=O)n2c(-c3ccccc3)c(-c3ccccc3)n12
inactive: MCF7 > 100 µM | HCT-116 37.4 µM | UACC-62 > 100 µM | OVCAR-8 > 100 µM | CCRF-CEM 31.4 µM | U-251 > 100 µM | SK-MEL-28 > 100 µM | MOLT-4 37.4 µM | SW-620 > 100 µM | HOP-92 > 100 µM | HT-29 70.1 µM | SN12C > 100 µM | UO-31 66.4 µM | OVCAR-5 > 100 µM | A498 > 100 µM | NCI-H460 91 µM | MDA-N > 100 µM

CSC1=N/C(=C\c2ccc(C)cc2)C(=O)N1CN1CCOCC1
inactive: MCF7 31.2 µM | HCT-116 35.7 µM | UACC-62 93.3 µM | OVCAR-8 45.6 µM | CCRF-CEM 41.4 µM | U-251 40.8 µM | SK-MEL-28 > 10 µM | MOLT-4 28.9 µM | SW-620 40 µM | HOP-92 > 100 µM | SN12C > 100 µM | UO-31 20.2 µM | OVCAR-5 > 100 µM | NCI-H522 97.5 µM | A498 98.2 µM | MDA-N > 100 µM

O[C@@H]1C[C@H]2N3CC[C@@]2(c2cc4c(cc2C3)OCO4)[C@H]2O[C@@H]12
inactive: MCF7 > 100 µM | HCT-116 > 100 µM | UACC-62 > 100 µM | OVCAR-8 > 100 µM | CCRF-CEM > 100 µM | U-251 > 100 µM | SK-MEL-28 > 100 µM | MOLT-4 > 100 µM | SW-620 > 100 µM | HOP-92 > 100 µM | HT-29 > 100 µM | SN12C > 100 µM | UO-31 > 100 µM | OVCAR-5 > 100 µM | NCI-H522 > 100 µM | A498 > 100 µM | NCI-H460 > 100 µM | MDA-N > 100 µM

Cc1nc2c(O)cc3c4c(=O)n(C)c(=O)n(C)c4n(Cc4ccccc4)c3c2nc1C
inactive: MCF7 15.8 µM | HCT-116 14.4 µM | UACC-62 18.2 µM | OVCAR-8 18.3 µM | CCRF-CEM 4.99 µM | U-251 18.3 µM | SK-MEL-28 14.3 µM | MOLT-4 24.5 µM | SW-620 19.5 µM | HOP-92 13.8 µM | HT-29 15.8 µM | SN12C 19.9 µM | UO-31 17.6 µM | OVCAR-5 22.6 µM | A498 33 µM | NCI-H460 45.8 µM | MDA-N 18.4 µM

Oc1c(/N=N/c2ccccc2)c2ccccc2c2ccc3ccccc3c12
inactive: MCF7 > 100 µM | HCT-116 > 100 µM | UACC-62 66.1 µM | OVCAR-8 76.6 µM | CCRF-CEM 43.9 µM | U-251 39.6 µM | SK-MEL-28 > 100 µM | MOLT-4 40.6 µM | T47D > 100 µM | SW-620 > 100 µM | HOP-92 38.2 µM | HT-29 > 100 µM | SN12C > 100 µM | UO-31 > 100 µM | OVCAR-5 > 100 µM | NCI-H522 > 100 µM | A498 > 100 µM | NCI-H460 > 100 µM

C[Si](C)(OCCS(=O)(=O)O)OC(=C1S(=O)(=O)OCCOS1(=O)=O)c1cccc2ccccc12
inactive: MCF7 67.6 µM | HCT-116 > 100 µM | OVCAR-8 > 100 µM | CCRF-CEM > 100 µM | U-251 > 100 µM | SK-MEL-28 > 100 µM | MOLT-4 > 100 µM | SW-620 > 100 µM | HOP-92 > 100 µM | HT-29 > 100 µM | SN12C > 100 µM | UO-31 > 100 µM | OVCAR-5 > 100 µM | A498 98.4 µM | NCI-H460 > 100 µM | MDA-N > 100 µM

CC(C)(C)OC(=O)N(CCCN)CCCCN(CCCN)C(=O)OC(C)(C)C
inactive: MCF7 > 100 µM | HCT-116 > 100 µM | UACC-62 > 100 µM | OVCAR-8 > 100 µM | CCRF-CEM > 100 µM | U-251 > 100 µM | SK-MEL-28 > 100 µM | MOLT-4 > 100 µM | T47D > 100 µM | SW-620 > 100 µM | HOP-92 > 100 µM | HT-29 > 100 µM | UO-31 > 100 µM | OVCAR-5 > 100 µM | NCI-H522 > 100 µM | A498 > 100 µM | NCI-H460 > 100 µM
